Results published in US20110086759A1, “CHEMICAL COMPOUNDS” (SYNGENTA CROP PROTECTION, INC., priority 2007, published 2011).

Legend:
Type in all cases: in vivo
[1] = system: Alopecurus myosuroides (ALOMY); assay: Pre-emergence biological efficacy, glasshouse pot test; conditions: 312 h, pre-emergence, 1,000 g/ha, evaluated after 13 days (100=total damage; 0=no damage), read-out: Percentage damage ALOMY
Method in brief: (§1)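 Compound was applied as a spray one day after sowing, at a final dose of 1000 or 250 g/ha. Plants grew under 14 h light, 24/16 °C and 65% humidity, and injury was assessed on day 13 on a 0–100 scale.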

[2] = system: Echinochloa crus-galli (ECHCG); assay: as above; conditions: 312 h, pre-emergence, 1,000 g/ha, evaluated after 13 days (100=total damage; 0=no damage), read-out: Percentage damage ECHCG
Method in brief: as §1

[3] = system: Ipomea hederaceae (IPOHE); assay: as above; conditions: Ipomoea hederacea, 312 h; pre-emergence, 1,000 g/ha, evaluated after 13 days (100=total damage; 0=no damage); read-out: Percentage damage IPOHE
Method in brief: as §1

Setaria faberi (SETFA) [4] = assay: as above; conditions: 312 h, pre-emergence, 1,000 g/ha, evaluated after 13 days (100=total damage; 0=no damage), read-out: Percentage damage SETFA
Method in brief: as §1

[5] = system: Amaranthus retoflexus (AMARE); assay: as above; conditions: Amaranthus retroflexus, 312 h; pre-emergence, 1,000 g/ha, evaluated after 13 days (100=total damage; 0=no damage); read-out: Percentage damage AMARE
Method in brief: as §1

Solanum nigrum (SOLNI) [6] = assay: as above; conditions: 312 h, pre-emergence, 1,000 g/ha, evaluated after 13 days (100=total damage; 0=no damage), read-out: Percentage damage SOLNI
Method in brief: as §1

[7] = system: Alopecurus myosuroides (ALOMY); assay: Post-emergence biological efficacy, glasshouse pot test; conditions: 312 h, post-emergence, 1,000 g/ha, evaluated after 13 days (100=total damage; 0=no damage), read-out: Percentage damage caused to weed species, ALOMY
Method in brief: (§2)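 Plants were sown in standard soil and grown 8 days in a glasshouse (24/16° C. day/night, 14 hours light, 65% humidity), then sprayed post-emergence at 1000 or 250 g/ha from acetone/water (50:50) with 0.5% Tween 20. Damage was scored visually after 13 days (0 = none, 100 = total).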

[8] = system: Echinochloa crus-galli (ECHCG); assay: as above; conditions: 312 h, post-emergence, 1,000 g/ha, evaluated after 13 days (100=total damage; 0=no damage), read-out: Percentage damage caused to weed species, ECHCG
Method in brief: as §2

[9] = system: Ipomea hederaceae (IPOHE); assay: as above; conditions: Ipomoea hederacea, 312 h; post-emergence, 1,000 g/ha, evaluated after 13 days (100=total damage; 0=no damage); read-out: Percentage damage caused to weed species, IPOHE
Method in brief: as §2

Setaria faberi (SETFA) [10] = assay: as above; conditions: 312 h, post-emergence, 1,000 g/ha, evaluated after 13 days (100=total damage; 0=no damage), read-out: Percentage damage caused to weed species, SETFA
Method in brief: as §2

[11] = system: Amaranthus retoflexus (AMARE); assay: as above; conditions: Amaranthus retroflexus, 312 h; post-emergence, 1,000 g/ha, evaluated after 13 days (100=total damage; 0=no damage); read-out: Percentage damage caused to weed species, AMARE
Method in brief: as §2

Solanum nigrum (SOLNI) [12] = assay: as above; conditions: 312 h, post-emergence, 1,000 g/ha, evaluated after 13 days (100=total damage; 0=no damage), read-out: Percentage damage caused to weed species, SOLNI
Method in brief: as §2

Row | SMILES | pest or weed control at 1000 g/ha [1] [%] | pest or weed control at 1000 g/ha [2] [%] | pest or weed control at 1000 g/ha [3] [%] | pest or weed control at 1000 g/ha (Setaria faberi (SETFA) [4]) [%] | pest or weed control at 1000 g/ha [5] [%] | pest or weed control at 1000 g/ha (Solanum nigrum (SOLNI) [6]) [%] | pest or weed control at 1000 g/ha [7] [%] | pest or weed control at 1000 g/ha [8] [%] | pest or weed control at 1000 g/ha [9] [%] | pest or weed control at 1000 g/ha (Setaria faberi (SETFA) [10]) [%] | pest or weed control at 1000 g/ha [11] [%] | pest or weed control at 1000 g/ha (Solanum nigrum (SOLNI) [12]) [%]
1 | COC(=O)c1nc(C2CC2)nc(NC2(c3ccc(Cl)cc3)CC2)c1Cl [Compound 4-5, 5-Chloro-4-[1-(4-chlorophenyl)cyclo-propylamino]-2-cyclopropyl-6-methoxycarbonyl-pyrimidine] | 0 | 0 | 40 | 0 | 40 | 0 | 20 | 0 | 70 | 40 | 100 | 80
2 | COC(=O)c1nc(C2CC2)nc(NC2(c3ccc(Cl)cc3Cl)CC2)c1Cl [Compound 4-6] | 0 | 0 | 10 | 0 | 40 | 20 | 20 | 20 | 60 | 0 | 100 | 40
3 | COC(=O)c1nc(C2CC2)nc(NC2(c3ccccn3)CC2)c1Cl [Compound 4-10, 5-Chloro-2-cyclopropyl-6-methoxycarbonyl-4-(1-pyrid-2-ylcyclo-propylamino)-pyrimidine] | 0 | 0 | 80 | 0 | 30 | 20 | 20 | 0 | 50 | 0 | 60 | 40
4 | COC(=O)c1nc(C2CC2)nc(NC2(c3cccc(C)n3)CC2)c1Cl [Compound 4-13, 5-Chloro-2-cyclopropyl-6-methoxycarbonyl-4-[1-(6-methylpyrid-2-yl)-cyclopropyl-amino]-pyrimidine] | 0 | 0 | 50 | 0 | 20 | 20 | 20 | 0 | 60 | 0 | 60 | 50
5 | COC(=O)c1nc(C2CC2)nc(NC2(COc3ccc(Cl)cc3)CC2)c1Cl [Compound 4-16, 5-Chloro-4-[1-(4-chlorophenoxy-methyl)cyclo-propylamino]-2-cyclopropyl-6-methoxycarbonyl-pyrimidine] | 0 | 0 | 10 | 0 | 30 | 10 | 20 | 40 | 100 | 60 | 100 | 90
6 | COC(=O)c1nc(C2CC2)nc(NC2(CCc3ccccc3)CC2)c1Cl [Compound 4-17, 5-Chloro-2-cyclopropyl-6-methoxycarbonyl-4-[1-(2-phenylethyl)-cyclopropylamino]-pyrimidine] | 10 | 20 | 70 | 0 | 50 | 10 | 20 | 30 | 60 | 60 | 100 | 70
7 | COC(=O)c1nc(C2CC2)nc(NC2(/C=C/c3ccc(F)cc3)CC2)c1Cl [Compound 4-20, 5-Chloro-2-cyclopropyl-4-{1-[2-(4-fluorophenyl)-ethenyl]-cyclo-propylamino}-6-methoxycarbonyl-pyrimidine] | 0 | 0 | 50 | 0 | 50 | 20 | 20 | 50 | 100 | 70 | 100 | 80
8 | COC(=O)c1nc(C2CC2)nc(NC2(/C=C/c3ccc(Cl)cc3)CC2)c1Cl [Compound 4-21, 5-Chloro-4-{1-[2-(4-chlorophenyl)-ethenyl]-cyclopropylamino}-2-cyclopropyl-6-methoxycarbonyl-pyrimidine] | 0 | 0 | 70 | 0 | 20 | 50 | 20 | 50 | 80 | 60 | 100 | 80
9 | COC(=O)c1nc(C2CC2)nc(NC2(/C=C/c3cc(C(F)(F)F)cc(C(F)(F)F)c3)CC2)c1Cl [Compound 4-22, 4-{1-[2-(3,5-Bis-trifluoromethylphen-yl)-ethenyl]-cyclopropylamino}-5-chloro-2-cyclopropyl-6-methoxycarbonyl-pyrimidine] | 20 | 20 | 80 | 10 | 70 | 20 | 30 | 40 | 100 | 80 | 100 | 100
10 | COC(=O)c1nc(C2CC2)nc(NC2(/C=C/c3cccs3)CC2)c1Cl [Compound 4-23, 5-Chloro-2-cyclopropyl-6-methoxycarbonyl-4-[1-(2-thiophen-2-ylethenyl)-cyclopropylamino]-pyrimidine] | 10 | 0 | 70 | 0 | 70 | 60 | 20 | 60 | 100 | 70 | 100 | 80
11 | COC(=O)c1nc(C2CC2)nc(NC2(/C=C/c3ccccc3Cl)CC2)c1Cl [Compound 4-24, 5-Chloro-4-{1-[2-(2-chlorophenyl)-ethenyl]-cyclopropylamino}-2-cyclopropyl-6-methoxycarbonyl-pyrimidine] | 10 | 0 | 40 | 0 | 100 | 90 | 10 | 30 | 100 | 60 | 100 | 80
